Data set [1] deals with isolated guinea pig heart. The data set is described as follows: Action on coronary flow of the isolated guinea pig heart (Langendorff). The note with it: Cavia porcellus, 100 γ/ml in propylene glycol, 0.1 ml infused at 0.1 ml/min, read-out: Increase in coronary flow (Δ% ± standard error). Here is the method: (a) Action on the isolated guinea pig heart.
Male guinea-pigs with body weights from 400 to 500 g were slaughtered and promptly thoractomized. After the ascending aorta was cannulated, the heart was enucleated. By the method of Langendorff, this isolated heart was perfused with the Krebs-Henseleit fluid oxygenated with a gaseous mixture of 95% O2 and 5% CO2 at the fluid temperature of 34±1° C. and the perfusion pressure of 60 cm H2 O, and the test compound was infused. The coronary flows before and after infusion were measured and the percent gain in coronary flow was obtained. The coronary flow was measured with a square-wave electromagnetic flowmeter (Nihon Kohden, MF-26) with an extracorporeal probe (Nihon Kohden, FE) set at the top of the cannula and recorded with a multipurpose polygraph (Nihon Kohden, RM-85). The test compound was dissolved in propylene glycol to a concentration of 100 γ/ml and 0.1 ml of the solution was infused at the rate of 0.1 ml/min. For reference, the corresponding data on diltiazem is also shown.

For data set [2], the system named is dogs. In words: Increase in coronary blood flow upon intravenous administration into dogs. It is filed as in vivo, dog. The note with it: for Increase in coronary blood flow (Δ% ± standard error): anaesthetized dogs, intravenous (femoral vein), dose 0.1 mg/kg, circumflex branch of left coronary; for activity in increasing coronary blood flow (in words): comparison with other esters. Here is the method: (b) Intravenous administration into dogs.
Increase in coronary blood flow upon intravenous administration of a test compound into dogs was tested. Compounds tested were 4-(benzothiazol-2-yl)benzylphosphonic acid ethyl isopropyl ester and, as a control, diltiazem, 4-(benzothiazol-2-yl)benzylphosphonic acid diethyl ester and 2-(benzothiazol-2-yl)-5-picolinylphosphonic acid diethyl ester.
Dogs weighing 10 to 13 kg were anaesthetized with pentobarbital sodium (35 mg/kg, intraperitoneal) and, under supportive respiration, a thoractomy was performed by removing the fourth left rib. The pericardial membrane was then incised to expose the heart. The test compound was dissolved in 50% aqueous ethanol and injected into the femoral vein. The blood flow through circumflex branch of left coronary was measured before and after the administration of drugs with an electromagnetic flowmeter (Nihon Kohden, MF-26).

Data set [3] can be described thus: Acute toxicity test in mice. The note with it: mouse, in vivo, ip; male ddY mice, intraperitoneal; deaths within 72 hours, method of Weil. The protocol:
(§1) An acute toxicity test was carried out in male ddY mice (in groups of 5 animals, body weights 20.congruent.2 g) by the intraperitoneal administration of a test compound. The LD50 values were calculated by the method of Weil based on the number of deaths within 72 hours.

Data set [4] concerns male ddY mice. In words: Acute toxicity test in mice. The note with it: mouse, in vivo; listed as compound of the invention. The protocol: as §1

Entries after “also recorded” stand apart in the source; their conditions may differ.

Take `CCOP(=O)(Cc1ccc(-c2nc3ccccc3s2)cc1)OC(C)C` (centres unmarked) [4-(benzothiazol-2-yl)benzylphosphonic acid isopropyl ethyl ester]: the activation at 100 µg/mL, 0.01 mg in data set [1] was determined as 76.9 ± 24.4%. Also, in data set [2], the “Increase in coronary blood flow (Δ% ± standard error)” value (from here on “Increase … (Δ% ± standard error)”) is listed as 75.3 ± 2.9 Δ%. Moreover, the “activity in increasing coronary blood flow (in words)” value in data set [2] (listed as asymmetric type ester of the invention) was “high activity in increasing coronary blood flow in comparison with other asymmetric and cyclic esters of this type”; in data set [2] (listed as compound of the invention) it was “somewhat lower in its activity of increasing coronary blood flow than the corresponding diethyl ester compound”. Besides, the LD50 (in general, the dose at which mortality reaches 50%) at 72 h in data set [3] came out at 1790 mg/kg. In addition, the “acute toxicity (in words)” value in data set [4] was “low acute toxicity; also recorded: lower acute toxicity than such compound”.
Consider `CCOP(=O)(Cc1ccc(-c2nc3ccccc3s2)cc1)OCC` [4-(benzothiazol-2-yl)benzylphosphonic acid diethyl ester, reference compound], for which the “Increase … (Δ% ± standard error)” value in data set [2] is recorded as 82.2 ± 5.0 Δ%.
Regarding `COc1ccc([C@@H]2Sc3ccccc3N(CCN(C)C)C(=O)[C@@H]2OC(C)=O)cc1` [Diltiazem, diltiazem, reference compound], the activation at 100 µg/mL, 0.01 mg in data set [1] was determined as 66 ± 7.1%. The “Increase … (Δ% ± standard error)” value in data set [2] is listed as 105.6 ± 14.1 Δ%. This compound registered an LD50 at 72 h in data set [3] of 177 mg/kg.
With `CCOP(=O)(Cc1ccc(-c2nc3ccccc3s2)nc1)OCC` [2-(benzothiazol-2-yl)-5-picolinylphosphonic acid diethyl ester, reference compound], the “Increase … (Δ% ± standard error)” value in data set [2] is 83.0 ± 12.3 Δ%.
